# Measurements taken from ChEMBL document CHEMBL3886382, “PDE 10a inhibitors for the treatment of type II diabetes” (2015).
# Assays:
# [1] = molecular target: T1, cAMP and cAMP-inhibited cGMP 3',5'-cyclic phosphodiesterase 10A (Rattus norvegicus, UniProt Q9QYJ6); experiment: In Vitro Assay: Rat recombinant PDE10a (rPDE10a) was expressed in Sf9 cells using a recombinant rPDE10a baculovirus construct. Cells were harvested after 48 h of infection and the rPDE10a protein was purified by metal chelate chromatography on Ni-sepharose 6FF. Tested compounds were dissolved and diluted in 100% DMSO to a concentration 100 fold of the final concentration in the assay. Compound dilutions (0.4 uL) were added in 384 well plates to 20 uL of incubation buffer (50 mM Tris pH 7.8, 8.3 mM MgCl2, 1.7 mM EGTA). 10 uL of rPDE10a enzyme in incubation buffer was added and the reaction was started by addition of 10 uL substrate to a final concentration of 60 nM cAMP and 0.008 uCi3H-cAMP. The reaction was incubated for 60 min at rt. After incubation, the reaction was stopped with 20 uL of 17.8 mg/mL PDE SPA beads. After sedimentation of the beads during 30 min the radioactivity was measured in a Perkin Elmer Topcount scintillation counter.
# T1 sequence (Q9QYJ6 whole entry): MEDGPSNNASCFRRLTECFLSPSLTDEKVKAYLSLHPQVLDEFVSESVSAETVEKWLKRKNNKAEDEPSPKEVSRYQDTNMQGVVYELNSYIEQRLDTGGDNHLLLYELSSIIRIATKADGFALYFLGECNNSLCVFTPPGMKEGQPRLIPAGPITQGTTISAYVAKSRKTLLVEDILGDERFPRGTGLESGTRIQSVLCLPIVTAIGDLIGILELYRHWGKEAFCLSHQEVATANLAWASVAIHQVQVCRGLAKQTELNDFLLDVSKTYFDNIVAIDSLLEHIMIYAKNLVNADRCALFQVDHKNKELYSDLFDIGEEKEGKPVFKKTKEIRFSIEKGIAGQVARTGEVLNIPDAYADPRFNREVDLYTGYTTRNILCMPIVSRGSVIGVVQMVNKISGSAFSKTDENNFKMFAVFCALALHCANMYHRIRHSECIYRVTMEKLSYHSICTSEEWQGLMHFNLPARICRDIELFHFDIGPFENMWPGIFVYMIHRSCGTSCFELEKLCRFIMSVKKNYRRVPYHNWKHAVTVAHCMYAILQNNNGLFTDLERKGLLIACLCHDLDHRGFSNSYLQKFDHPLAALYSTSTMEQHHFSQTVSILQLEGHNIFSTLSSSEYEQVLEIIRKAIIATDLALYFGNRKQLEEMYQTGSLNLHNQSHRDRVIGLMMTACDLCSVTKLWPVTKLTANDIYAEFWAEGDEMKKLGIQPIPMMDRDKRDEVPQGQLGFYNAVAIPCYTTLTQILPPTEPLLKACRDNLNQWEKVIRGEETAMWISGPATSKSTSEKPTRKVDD
# [2] = molecular target: cAMP and cAMP-inhibited cGMP 3',5'-cyclic phosphodiesterase 10A (Homo sapiens, UniProt Q9Y233); experiment: In Vitro Assay: Human recombinant PDE10A2 was expressed in Sf9 cells, using a recombinant baculovirus construct containing the full length sequence containing a 6ÿHis sequence following the start Met to allow metal affinity purification of the recombinant protein. Cells were harvested and the phosphodiesterase protein was purified by metal chelate chromatography on Ni-sepharose 6FF.The affinity of the compounds of Formula (I) for phophodiesterases (PDE) was measured by a scintillation proximity assay (SPA). PDE Yttrium Silicate SPA beads allow PDE activity to be measured by direct binding of the primary phosphate groups of non-cyclic AMP or GMP to the beads via a complex iron chelation mechanism. The amount of bound tritiated product ([3H]-AMP) is measured by liquid scintillation counting.The compounds were dissolved and diluted in 100% DMSO in polystyrene plates to a concentration of 100-fold the final concentration in the assay. Human PDE10A enzyme solution (10 uL) was added.
# cAMP and cAMP-inhibited cGMP 3',5'-cyclic phosphodiesterase 10A (Homo sapiens, UniProt Q9Y233), sequence (Q9Y233 whole entry): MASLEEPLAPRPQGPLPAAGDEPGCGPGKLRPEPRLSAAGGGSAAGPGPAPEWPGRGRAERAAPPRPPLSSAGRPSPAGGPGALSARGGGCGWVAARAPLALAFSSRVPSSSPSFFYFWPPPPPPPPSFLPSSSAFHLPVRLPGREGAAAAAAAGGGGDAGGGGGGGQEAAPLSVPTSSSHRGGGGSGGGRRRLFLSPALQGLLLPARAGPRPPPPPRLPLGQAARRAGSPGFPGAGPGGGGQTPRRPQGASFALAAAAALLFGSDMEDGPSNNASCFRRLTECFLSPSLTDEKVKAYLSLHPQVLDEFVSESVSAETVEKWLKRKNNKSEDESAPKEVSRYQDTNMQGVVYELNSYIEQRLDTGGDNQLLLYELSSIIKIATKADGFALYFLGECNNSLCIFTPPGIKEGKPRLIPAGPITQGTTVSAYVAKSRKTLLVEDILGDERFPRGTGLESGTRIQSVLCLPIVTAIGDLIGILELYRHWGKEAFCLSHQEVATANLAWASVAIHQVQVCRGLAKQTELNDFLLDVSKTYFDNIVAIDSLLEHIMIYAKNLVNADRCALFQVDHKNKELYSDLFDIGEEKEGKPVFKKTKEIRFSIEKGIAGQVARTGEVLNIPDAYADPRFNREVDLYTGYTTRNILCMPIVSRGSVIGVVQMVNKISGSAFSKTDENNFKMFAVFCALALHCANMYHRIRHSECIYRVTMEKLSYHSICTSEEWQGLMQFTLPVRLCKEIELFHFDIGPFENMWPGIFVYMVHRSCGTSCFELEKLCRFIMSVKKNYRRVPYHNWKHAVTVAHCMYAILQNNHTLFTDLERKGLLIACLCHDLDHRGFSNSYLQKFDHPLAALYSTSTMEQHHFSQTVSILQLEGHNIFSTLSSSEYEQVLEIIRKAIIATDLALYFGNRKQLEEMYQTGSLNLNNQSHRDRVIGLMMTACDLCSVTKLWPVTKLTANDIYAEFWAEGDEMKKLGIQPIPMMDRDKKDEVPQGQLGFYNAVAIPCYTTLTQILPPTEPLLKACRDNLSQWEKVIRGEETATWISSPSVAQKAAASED
SMILES,IC50 [1],IC50 [2]
C(#Cc1nc2c(N3CCOCC3)ccnn2c1-c1ccc(N2CCNCC2)nc1)c1ccc2ccccc2n1,1 nM,3 nM
O=C(O)c1cccc2nc(/C=C/c3nc4c(N5CCOCC5)ccnn4c3-c3ccccc3)ccc12,1 nM,< 1 nM
COc1cccc(-c2c(/C=C/c3ccc4c(C(=O)O)cccc4n3)nc3c(N4CCOCC4)ccnn23)c1,,1 nM
C(=C\c1nc2c(N3CCOCC3)ccnn2c1-c1ccc(Sc2nnc[nH]2)nc1)/c1ccc2ccccc2n1,4 nM,6 nM
N#Cc1ccc(-c2c(/C=C/c3ccc4c(C(=O)O)cccc4n3)nc3c(N4CCOCC4)ccnn23)cc1,1 nM,

# Next, values leading:
IC50 [1],IC50 [2],SMILES
1 nM,,O=C(O)c1ccc(-c2c(CSc3ccc4ccccc4n3)nc3c(N4CCOCC4)ccnn23)cc1
2 nM,,O=C(O)c1cccc2nc(/C=C/c3nc4c(N5CCOCC5)cc(Cl)nn4c3-c3cccnc3)ccc12
5 nM,7 nM,O=C(O)CN1CCC(c2c(C#Cc3ccc4ccccc4n3)nc3c(N4CCOCC4)ccnn23)CC1
